The % Inhibition is the relative decrease from the control value, in per cent. Read a low % Inhibition as a weak effect. By inhibition is commonly meant the relative decrease from the control value, in per cent. A high value points to a response far below the control.

In data set [1] the test system is Diclofenac-induced gastric ulcers. Put plainly: Diclofenac-induced ulcer (gastric lesions) in the rat. It is filed as in vivo. As to conditions: for ED50: by mouth, inhibition of Diclofenac-induced gastric lesions, read-out: ED₅₀ and confidence limits (p = 0.95); for ED50 / oral therapeutic indices (LD₅₀/ED₅₀) Diclofenac-induced ulcer: rat; for % Inhibition: 1 h before 100 mg/kg Diclofenac, sacrifice 5 h after; for R: potency ratio relative to Carbenoxolone (= 1.0), Diclofenac-induced ulcers; for oral therapeutic indices (LD₅₀/ED₅₀) Diclofenac-induced ulcer: oral LD50 / ED50 in Diclofenac-induced ulcer. The protocol:
Female Sprague-Dawley rats weighing 180-200 g that had been fasted for 24 h were used in this experiment. The gastric lesions were induced by a single oral dose of 100 mg/kg Diclofenac.
The animals were sacrificed 5 h after administration of the damage-inducing agent. The gastric lesions were measured in mm² and expressed as a percentage of inhibition.
The substances under investigation, suspended in 0.5% Methocel, were administered by mouth 1 h before the anti-inflammatory agent.

In data set [2] the test system is alcohol-induced gastric lesions. As to the kind of experiment: Alcohol-induced ulcer (gastric lesions) in the rat. It is filed as in vivo. As to conditions: for inhibition at 12.5 mg/kg: dose 12.5 mg/kg os; for inhibition at 50 mg/kg: dose 50.0 mg/kg os; for ED50: by mouth, inhibition of alcohol-induced gastric lesions, read-out: ED₅₀ mg/kg and confidence limits (p = 0.95); for ED50 / oral therapeutic indices (LD₅₀/ED₅₀) Alcohol-induced ulcer: rat; for R: potency ratio relative to Carbenoxolone (= 1.0), alcohol-induced lesions; for inhibition at 100 mg/kg: dose 100.0 mg/kg os; for inhibition at 200 mg/kg: dose 200.0 mg/kg os; for oral therapeutic indices (LD₅₀/ED₅₀) Alcohol-induced ulcer: oral LD50 / ED50 in alcohol-induced ulcer; for inhibition at 6.25 mg/kg: dose 6.25 mg/kg os. On the procedure:
The gastric lesions were induced in male Sprague-Dawley rats weighing 120-140 g, which had been fasted for 48 h, by administering 1 ml/rat of 90% alcohol by mouth. One hour after administration of the damage-inducing agent, the animals were sacrifed in an excess of ether and the stomachs opened along the major curvature; the gastric lesions were measured in mm² and expressed as the percentage of inhibition compared with the controls. The substances under investigation, suspended in 0.5% Methocel, were administered by mouth 1 hour before the alcohol.

A short description of data set [3]: Antidiuretic activity: effects on urinary excretion in the rat. It is filed as in vivo. To be noted: for Electrolyte output, mEq/6h/rat K^+ / Electrolyte output, mEq/6h/rat Na^+ / Na^+/K^+ / Urine volume (0-6 h): urine collected 6 hours after fifth dose. The protocol:
The effect of compounds IIa and IIb (M=Na) on urinary excretion was investigated in male Sprague-Dawley rats weighing 180-200 g. […] Carbenoxolone in a dose of 200 mg/kg was used as a reference substance. The animals were fasted for 18 h before the last dose. The urine was collected for 6 hours after administration of the fifth dose and its content of Na⁺ and K⁺ was measured.

A short description of data set [4]: Acute toxicity in the rat. As to conditions: in vivo; for LD50 at 14 days: both sexes, Sprague-Dawley; for LD50 at 336 h: 14 days observation. The protocol: The acute toxicity of compounds IIa and IIb (M=Na) was evaluated in the rat after oral and intraperitoneal administration.
Each experimental group comprised 5 male and 5 female Sprague-Dawley rats. After being treated, the animals were kept under observation for 14 days and the dose that caused the death of 50% of the animals (LD₅₀) was calculated by the probit method (Finney D J. in "Probit Analysis", Cambridge University Press, 3rd Ed., Cambridge, 1971). The results shown in Table 4 indicate that, after intraperitoneal administration, the toxicity of both compounds is similar to that of the reference product.

[5] abbreviates: Rattus norvegicus, 1 hour before 90% alcohol, lesions in mm² vs controls.
[6] abbreviates: 200 mg/kg os once a day for 5 days.
[7] abbreviates: 20 mg/kg os once a day for 5 days.
[8] abbreviates: ip, intraperitoneal, probit method, read-out: LD50 (confidence limits p = 0.95) mg/kg i.p.
Where [9] appears, read: oral, 1000 mg/kg (LD10) = maximum dose that could be administered (2 doses of 500 mg/kg 1 h apart), read-out: LD50 (confidence limits p = 0.95) mg/kg p.o.

Where a name gives a salt, the structure may show the parent alone. Read-outs that look alike come from different tables or passages of the source.

For the compound `CC1(C)[C@@H](OC(=O)c2ccccc2C(=O)O)CC[C@]2(C)[C@H]3CC=C4[C@@H]5C[C@@](C)(COC(=O)c6ccccc6C(=O)O)CC[C@]5(C)CC[C@@]4(C)[C@]3(C)CC[C@@H]12` [18β-olean-12-ene-3β,3-0-diol di-0-hemiphthalate], the ED50 amounted to 38.9 mg/kg in data set [1] and 14.6 mg/kg in data set [2]. The “% Inhibition” value in data set [1] (dose 3.125 mg/kg os) came to 1.5%; in data set [1] (dose 6.25 mg/kg os) it was 5.9%; in data set [1] (dose 12.5 mg/kg os) it was 21.5%; in data set [1] (dose 25.0 mg/kg os), 29.8%. Also, the R turned out to be 3.5 in data set [1] and 5.6 in data set [2]. In data set [2] (Rattus norvegicus, dose 0.8 mg/kg os, 1 hour before 90% alcohol, lesions in mm² vs controls), this compound returned an inhibition at 0.8 mg/kg of 12%. In addition, the inhibition at 3.12 mg/kg in data set [2] (Rattus norvegicus, dose 3.12 mg/kg os, 1 hour before 90% alcohol, lesions in mm² vs controls) amounted to 32%. Besides, at 12.5 mg/kg the inhibition in data set [2] (setting [5]) was 40.8%. The inhibition at 50 mg/kg in data set [2] (setting [5]) was determined as 70.2%.
Take `C[C@H]1[C@H](C)CC[C@]2(C(=O)O)CC[C@]3(C)C(=CC=C4[C@@]5(C)CC[C@H](OC(=O)CCC(=O)O)C(C)(C)[C@@H]5CC[C@]43C)[C@H]12` [3β-(carboxy-propionyloxy)-ursa-9(11),12-dien-28-oic acid]: in data set [2] (setting [5]), 50 mg/kg produced 28.4% inhibition, the inhibition at 100 mg/kg amounted to 45.6% and the inhibition at 200 mg/kg stood at 76.3%. This compound also came in with an inhibition at 400 mg/kg in data set [2] (Rattus norvegicus, dose 400.0 mg/kg os, 1 hour before 90% alcohol, lesions in mm² vs controls) of 80.1%. Further, in data set [2], the ED50 was found to be 106 mg/kg and the R stood at 0.8.
Consider `CC1(C)[C@@H](OC(=O)CCC(=O)O)CC[C@]2(C)[C@H]3C(=O)C=C4[C@@H]5C[C@@](C)(C(=O)O)CC[C@]5(C)CC[C@@]4(C)[C@]3(C)CC[C@@H]12` [Carbenoxolone, sodium salt of the hemisuccinate of β-glycyrrhetic acid], for which, in data set [3] (setting [6]), the “Electrolyte output, mEq/6h/rat K^+” value came to 0.12±0.01 mEq/6h/rat; the “Electrolyte output, mEq/6h/rat Na^+” value is 0.10±0.01 mEq/6h/rat; the “Na^+/K^+” value is 0.8; the “Urine volume (0-6 h)” value stood at 1.5 ± 0.2 mL. In addition, the “Na^+/K^+” value in data set [3] (200 mg/kg os once a day for 5 days, listed as carbenoxolone) stood at 0.5. Further, in data set [3] (200 mg/kg, versus controls), the reducing diuresis was found to be 67% and the “reduction in the excretion of Na⁺” value turned out to be 72%. Besides, the LD50 at 14 days in data set [4] (ip) was found to be 92 mg/kg. The same compound registered an LD50 at 14 days in data set [4] (po) of 3100 mg/kg. Moreover, in data set [1], the ED50 came to 140 mg/kg, the “oral therapeutic indices (LD₅₀/ED₅₀) Diclofenac-induced ulcer” value worked out at 22 and the R was 1.0. For the same compound, in data set [1] (dose 100.0 mg/kg os), the “% Inhibition” value came to 37.2%. Besides, the “% Inhibition” value in data set [1] (dose 150.0 mg/kg os) is listed as 45.6%. For the same compound, in data set [1] (dose 200.0 mg/kg os), the “% Inhibition” value is 72.7%. Moreover, the “% Inhibition” value in data set [1] (dose 400.0 mg/kg os) was 90.9%. Besides, in data set [2] (setting [5]), testing at 50 mg/kg gave an inhibition of 34.9%, the inhibition at 100 mg/kg turned out to be 45% and the inhibition at 200 mg/kg came out at 83%. Also, in data set [2], the ED50 stood at 90.4 mg/kg, the “oral therapeutic indices (LD₅₀/ED₅₀) Alcohol-induced ulcer” value is given as 34 and the R is listed as 1.0.
Turning to `C[C@H]1[C@H](C)CC[C@]2(COC(=O)c3ccccc3C(=O)O)CC[C@]3(C)C(=CC=C4[C@@]5(C)CC[C@H](OC(=O)c6ccccc6C(=O)O)C(C)(C)[C@@H]5CC[C@]43C)[C@H]12` [IIb (M = Na), disodium salt of the dihemiphthalate of ursa-9(11),12-diene-3β,28-diol], in data set [3] (setting [7]), the “Electrolyte output, mEq/6h/rat K^+” value was 0.13±0.02 mEq/6h/rat; the “Electrolyte output, mEq/6h/rat Na^+” value amounted to 0.19±0.02 mEq/6h/rat; the “Na^+/K^+” value came out at 1.5; the “Urine volume (0-6 h)” value was determined as 2.8 ± 0.3 mL. For the same compound, the LD50 at 336 h in data set [4] (setting [8]) was found to be 75 mg/kg. In addition, the LD50 at 336 h in data set [4] (setting [9]) is above 1000 mg/kg. Also, in data set [1], the ED50 is 6.4 mg/kg, the “oral therapeutic indices (LD₅₀/ED₅₀) Diclofenac-induced ulcer” value is above 156 and the R worked out at 17.8. For the same compound, in data set [1] (dose 3.125 mg/kg os), the “% Inhibition” value is 37.4%. Also, the “% Inhibition” value in data set [1] (dose 6.25 mg/kg os) was 43.3%. For the same compound, in data set [1] (dose 12.5 mg/kg os), the “% Inhibition” value is 72.0%. The “% Inhibition” value in data set [1] (dose 25.0 mg/kg os) amounted to 73.3%. In data set [2] (setting [5]), this compound yielded an inhibition at 6.25 mg/kg of 10.7% and an inhibition at 12.5 mg/kg of 32.5%. Further, the inhibition at 16 mg/kg in data set [2] (Rattus norvegicus, dose 16.0 mg/kg os, 1 hour before 90% alcohol, lesions in mm² vs controls) was determined as 38.2%. The compound also had an inhibition at 25 mg/kg in data set [2] (Rattus norvegicus, dose 25.0 mg/kg os, 1 hour before 90% alcohol, lesions in mm² vs controls) of 76.6%. Also, in data set [2], the ED50 is 16.8 mg/kg, the “oral therapeutic indices (LD₅₀/ED₅₀) Alcohol-induced ulcer” value is recorded as above 60 and the R was determined as 5.5.
Regarding `C[C@H]1[C@H](C)CC[C@]2(COC(=O)c3ccccc3C(=O)O)CC[C@]3(C)C(=CC[C@@H]4[C@@]5(C)CC[C@H](OC(=O)c6ccccc6C(=O)O)C(C)(C)[C@@H]5CC[C@]43C)[C@H]12` [IIa (M = Na), disodium salt of the dihemiphthalate or urs-12-ene-3β,28-diol], in data set [3] (setting [7]), the “Electrolyte output, mEq/6h/rat K^+” value amounted to 0.14±0.01 mEq/6h/rat; the “Electrolyte output, mEq/6h/rat Na^+” value is 0.21±0.01 mEq/6h/rat; the “Na^+/K^+” value stood at 1.5; the “Urine volume (0-6 h)” value came to 3.0 ± 0.2 mL. Also, the LD50 at 336 h in data set [4] (setting [8]) came to 60 mg/kg. Further, in data set [4] (setting [9]), the LD50 at 336 h was above 1000 mg/kg. Moreover, in data set [1], the ED50 turned out to be 7 mg/kg, the “oral therapeutic indices (LD₅₀/ED₅₀) Diclofenac-induced ulcer” value is reported as above 143 and the R is 16.3. Besides, the “% Inhibition” value in data set [1] (dose 3.125 mg/kg os) stood at 8.9%. Besides, in data set [1] (dose 6.25 mg/kg os), the “% Inhibition” value was 28.3%. Further, the “% Inhibition” value in data set [1] (dose 7.5 mg/kg os) worked out at 62.3%. In addition, the “% Inhibition” value in data set [1] (dose 9.0 mg/kg os) is 67.9%. Moreover, testing at 2 mg/kg in data set [2] (Rattus norvegicus, dose 2.0 mg/kg os, 1 hour before 90% alcohol, lesions in mm² vs controls) gave an inhibition of 16.1%. The compound also returned an inhibition at 2.5 mg/kg in data set [2] (Rattus norvegicus, dose 2.5 mg/kg os, 1 hour before 90% alcohol, lesions in mm² vs controls) of 22.1%. Testing at 3.125 mg/kg in data set [2] (Rattus norvegicus, dose 3.125 mg/kg os, 1 hour before 90% alcohol, lesions in mm² vs controls) gave an inhibition of 65.2%. This compound also registered an inhibition at 6.25 mg/kg in data set [2] (setting [5]) of 67.4%. Besides, in data set [2], the ED50 was found to be 3.7 mg/kg, the “oral therapeutic indices (LD₅₀/ED₅₀) Alcohol-induced ulcer” value is given as above 270 and the R is on record as 25.6.
